Basophil histamine release data for 1 substance are collected here from patent US20040219105A1, “Human hookworm model and method for maintaining human hookworm in a non-human primate” (priority 2003, published 2004).

This assay has as its system whole blood basophils. The assay can be described thus: Whole blood basophil histamine release (Histamine Assay Kit). The format is cell-based, marmoset (Callithrix jacchus). The settings on record: whole blood of hookworm-infected animals; 5 out of 6 animals. The method, then:
Furthermore, whole blood basophils collected from the animals were challenged for their ability to release histamine. One hundred (100) μl of whole blood was collected from the primates into heparinized tubes and the volume was made up to 500 μl using PIPES buffer (0.01 M Piperazine-N′N-bis[2-ethaneculfonic acid], 0.14 M sodium acetate, 5 mM potassium acetate, 0.1% glucose, 1 mM CaCl2 and 0.03% human serum albumin, pH 7.4). Spontaneous histamine release was assessed following incubation for 1 h at 37° C., while total histamine release was assessed when 50 μl of whole blood in 450 μl dH2O was freeze-thawed three times. […] Histamine released in each whole blood challenge was detected using a Histamine Assay Kit (Hycor Biomedical Ltd.). […] Antibody binding was visualised by the addition of 100 μl of 1 mg/ml of p-nitrophenyl phosphate (pNPP) substrate The plates were developed for 1 h at 37° C. and the absorbance measured at 405 nm using a Dynex MRX absorbance microplate reader (DYNEX Technologies, Chantilly, Va.). For all samples and calibrators the percentage binding was determined by the following: [formula]
A standard curve was constructed by plotting the Percentage Binding against concentration for each histamine calibrator, and the levels of histamine in each challenge were determined from this curve.

Take calreticulin: the basophil histamine release entry is “significant histamine release”.
